Measured values taken from patent publication US20110086759A1, “CHEMICAL COMPOUNDS” (SYNGENTA CROP PROTECTION, INC., priority 2007, published 2011).

Key:
Assay type in all cases: in vivo
[1] = test system: Ipomea hederaceae (IPOHE); experiment: Pre-emergence biological efficacy, glasshouse pot test; settings: Ipomoea hederacea, 312 h; pre-emergence, rate 1,000 g/ha, evaluated after 13 days (100=total damage to plant; 0=no damage); read-out: Percentage damage caused to weed species, IPOHE
Method in brief: (§1)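 Glasshouse pot test: spray on soil one day after sowing, 1000 or 250 g/ha. Conditions 24/16 °C day/night, 14 h light, 65% humidity. Plant damage scored 0–100 at 13 days.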

[2] = test system: Setaria faberi (SETFA); experiment: as above; settings: 312 h, pre-emergence, rate 1,000 g/ha, evaluated after 13 days (100=total damage to plant; 0=no damage), read-out: Percentage damage caused to weed species, SETFA
Method in brief: as §1

[3] = test system: Echinochloa crus-galli (ECHCG); experiment: as above; settings: 312 h, pre-emergence, rate 1,000 g/ha, evaluated after 13 days (100=total damage to plant; 0=no damage), read-out: Percentage damage caused to weed species, ECHCG
Method in brief: as §1

[4] = test system: Solanum nigrum (SOLNI); experiment: as above; settings: 312 h, pre-emergence, rate 1,000 g/ha, evaluated after 13 days (100=total damage to plant; 0=no damage), read-out: Percentage damage caused to weed species, SOLNI
Method in brief: as §1

[5] = test system: Alopecurus myosuroides (ALOMY); experiment: as above; settings: 312 h, pre-emergence, rate 1,000 g/ha, evaluated after 13 days (100=total damage to plant; 0=no damage), read-out: Percentage damage caused to weed species, ALOMY
Method in brief: as §1

[6] = test system: Amaranthus retoflexus (AMARE); experiment: as above; settings: Amaranthus retroflexus, 312 h; pre-emergence, rate 1,000 g/ha, evaluated after 13 days (100=total damage to plant; 0=no damage); read-out: Percentage damage caused to weed species, AMARE
Method in brief: as §1

[7] = test system: Ipomea hederaceae (IPOHE); experiment: Post-emergence biological efficacy, glasshouse pot test; settings: Ipomoea hederacea, 312 h; Rate 1,000 g/ha; post-emergence spray; evaluated after 13 days (100=total damage to plant; 0=no damage to plant); read-out: Percentage damage caused to weed species, post-emergence, IPOHE
Method in brief: (§2)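 Pot-grown weeds were sprayed 8 days after sowing with test compound in acetone/water (50:50) with 0.5% Tween 20 at 1000 or 250 g/ha. Glasshouse at 24/16° C day/night, 14 h light, 65% humidity. Damage scored 0-100 (100 = total damage) after 13 days.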

[8] = test system: Setaria faberi (SETFA); experiment: as above; settings: 312 h, Rate 1,000 g/ha, post-emergence spray, evaluated after 13 days (100=total damage to plant; 0=no damage to plant), read-out: Percentage damage caused to weed species, post-emergence, SETFA
Method in brief: as §2

[9] = test system: Echinochloa crus-galli (ECHCG); experiment: as above; settings: 312 h, Rate 1,000 g/ha, post-emergence spray, evaluated after 13 days (100=total damage to plant; 0=no damage to plant), read-out: Percentage damage caused to weed species, post-emergence, ECHCG
Method in brief: as §2

[10] = test system: Solanum nigrum (SOLNI); experiment: as above; settings: 312 h, Rate 1,000 g/ha, post-emergence spray, evaluated after 13 days (100=total damage to plant; 0=no damage to plant), read-out: Percentage damage caused to weed species, post-emergence, SOLNI
Method in brief: as §2

[11] = test system: Alopecurus myosuroides (ALOMY); experiment: as above; settings: 312 h, Rate 1,000 g/ha, post-emergence spray, evaluated after 13 days (100=total damage to plant; 0=no damage to plant), read-out: Percentage damage caused to weed species, post-emergence, ALOMY
Method in brief: as §2

[12] = test system: Amaranthus retoflexus (AMARE); experiment: as above; settings: Amaranthus retroflexus, 312 h; Rate 1,000 g/ha; post-emergence spray; evaluated after 13 days (100=total damage to plant; 0=no damage to plant); read-out: Percentage damage caused to weed species, post-emergence, AMARE
Method in brief: as §2

SMILES | pest or weed control at 1000 g/ha [1] | pest or weed control at 1000 g/ha [2] | pest or weed control at 1000 g/ha [3] | pest or weed control at 1000 g/ha [4] | pest or weed control at 1000 g/ha [5] | pest or weed control at 1000 g/ha [6] | pest or weed control at 1000 g/ha [7] | pest or weed control at 1000 g/ha [8] | pest or weed control at 1000 g/ha [9] | pest or weed control at 1000 g/ha [10] | pest or weed control at 1000 g/ha [11] | pest or weed control at 1000 g/ha [12]
COC(=O)c1nc(-c2ccc(Cl)c(F)c2)nc(NCc2ccco2)c1Cl [Compound 222-48, 5-Chloro-2-(4-chloro-3-fluorophenyl)-4-(furan-2-ylmethyl-amino)-6-methoxycarbonyl-pyrimidine] | 70% | 20% | 50% | 100% | 30% | 100% | 80% | 40% | 40% | 90% | 30% | 100%
COC(=O)c1nc(-c2ccc(Cl)c(F)c2Cl)nc(NCc2ccco2)c1Cl [Compound 224-48, 5-Chloro-2-(2,4-dichloro-3-fluorophenyl)-4-(furan-2-ylmethyl-amino)-6-methoxy-carbonylpyrimidine] | 70% | 50% | 0% | 90% | 60% | 100% | 70% | 80% | 40% | 90% | 60% | 100%
COC(=O)c1nc(-c2ccc(Cl)c(F)c2F)nc(NCc2ccco2)c1Cl [Compound 225-48, 5-Chloro-2-(4-chloro-2,3-difluorophenyl)-4-(furan-2-ylmethyl-amino)-6-methoxy-carbonylpyrimidine] | 70% | 80% | 30% | 90% | 60% | 100% | 90% | 80% | 60% | 90% | 60% | 100%
COC(=O)c1nc(-c2ccc(Cl)c(Cl)c2F)nc(NCc2ccco2)c1Cl [Compound 226-48, 5-Chloro-2-(3,4-dichloro-2-fluorophenyl)-4-(furan-2-ylmethyl-amino)-6-methoxy-carbonylpyrimidine] | 30% | 40% | 30% | 100% | 50% | 100% | 60% | 80% | 60% | 90% | 50% | 100%
COC(=O)c1nc(-c2cc(Cl)c(Cl)cc2Cl)nc(NCc2ccco2)c1Cl [Compound 228-48, 5-Chloro-4-(furan-2-ylmethylamino)-6-methoxycarbonyl-2-(2,4,5-trichloro-phenyl)pyrimidine] | 0% | 0% | 0% | 0% | 0% | 30% | 10% | 20% | 0% | 30% | 20% | 70%
COC(=O)c1nc(-c2ccc(Cl)c(OC)c2)nc(NCc2ccco2)c1Cl [Compound 229-48, 5-Chloro-2-(4-chloro-3-methoxyphenyl)-4-(furan-2-ylmethyl-amino)-6-methoxy-carbonylpyrimidine] | 0% | 30% | 0% | 90% | 10% | 100% | 30% | 60% | 30% | 80% | 10% | 100%
COC(=O)c1nc(-c2ccc(Cl)c(C(F)(F)F)c2F)nc(NCc2ccco2)c1Cl [Compound 230-48, 5-Chloro-2-(4-chloro-2-fluoro-3-trifluoro-methylphenyl)-4-(furan-2-ylmethyl-amino)-6-methoxy-carbonylpyrimidine] | 50% | 50% | 20% | 70% | 30% | 70% | 60% | 70% | 90% | 80% | 30% | 100%
COC(=O)c1nc(-c2ccc(Cl)c(Cl)c2Cl)nc(NCc2ccco2)c1Cl [Compound 231-48, 5-Chloro-4-(furan-2-ylmethylamino)-6-methoxycarbonyl-2-(2,3,4-trichloro-phenyl)pyrimidine] | 10% | 20% | 30% | 40% | 40% | 100% | 70% | 70% | 30% | 80% | 50% | 100%
COC(=O)c1nc(-c2cc(F)c(Cl)c(F)c2)nc(NCc2ccco2)c1Cl [Compound 232-48, 5-Chloro-2-(4-chloro-3,5-difluorophenyl)-4-(furan-2-ylmethyl-amino)-6-methoxy-carbonylpyrimidine] | 0% | 0% | 0% | 0% | 0% | 0% | 10% | 0% | 0% | 60% | 0% | 20%
COC(=O)c1nc(-c2ccc(C(F)(F)F)cc2)nc(NCc2ccco2)c1Cl [Compound 233-48, 5-Chloro-4-(furan-2-ylmethylamino)-6-methoxycarbonyl-2-(4-trifluoromethyl-phenyl)pyrimidine] | 60% | 20% | 20% | 100% | 30% | 100% | 70% | 10% | 30% | 80% | 20% | 80%
